This passage reports IC50 results from patent US20070088033A1, “Diaryl Substituted Pyridinones” (priority 2002, published 2007).

“And” between values parts separate entries of the source, which are not always exact repeats. Identical values can stand only once.

T1 sequence (Q16539 whole entry): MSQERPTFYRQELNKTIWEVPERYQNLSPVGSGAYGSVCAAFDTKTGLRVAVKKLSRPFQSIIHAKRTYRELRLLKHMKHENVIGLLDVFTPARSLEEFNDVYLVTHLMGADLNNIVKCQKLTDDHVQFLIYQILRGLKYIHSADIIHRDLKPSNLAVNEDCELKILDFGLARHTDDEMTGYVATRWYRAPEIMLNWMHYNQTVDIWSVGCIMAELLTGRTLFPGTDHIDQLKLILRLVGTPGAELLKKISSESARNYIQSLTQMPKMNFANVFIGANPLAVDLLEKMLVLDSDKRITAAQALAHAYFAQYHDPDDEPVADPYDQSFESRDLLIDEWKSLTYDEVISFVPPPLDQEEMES

The first test addresses T1, human p38 kinase alpha (Homo sapiens, UniProt Q16539).
T1 construct: The coding region of the human p38 cDNA was obtained by PCR-amplification from RNA isolated from the human monocyte cell line THP.1; GST (N); made in house; host or cells: E. coli DH10B
Description: p38 kinase in vitro assay. The format is biochemical. Particulars: Table I; average of n trials, n=1 if not reported; read-out: p38 Alpha IC50. Here is the method:
The ability of compounds to inhibit human p38 kinase alpha was evaluated using two in vitro assay methods. In the first method, activated human p38 kinase alpha phosphorylates a biotinylated substrate, PHAS-I (phosphorylated heat and acid stable protein-insulin inducible), in the presence of gamma ^32p-ATP (^32P-ATP). PHAS-I was biotinylated prior to the assay and provides a means of capturing the substrate, which is phosphorylated during the assay. p38 Kinase was activated by MKK6. Compounds were tested in 10 fold serial dilutions over the range of 100 μM to 0,001 μM using 1% DMSO. Each concentration of inhibitor was tested in triplicate.
All reactions were carried out in 96 well polypropylene plates. Each reaction well contained 25 mM HEPES pH 7.5, 10 mM magnesium acetate and 50 μM unlabeled ATP. […] Activated human p38 kinase alpha was used at 1 μg per 50 μl reaction volume representing a final concentration of 0.3 μM. Gamma ^32P-ATP was used to follow the phosphorylation of PHAS-I. ^32P-ATP has a specific activity of 3000 Ci/mmol and was used at 1.2 μCi per 50 μl reaction volume. The reaction proceeded either for one hour or overnight at 30° C.
Following incubation, 20 μl of reaction mixture was transferred to a high capacity streptavidin coated filter plate (SAM-streptavidin-matrix, Promega) prewetted with phosphate buffered saline, The transferred reaction mix was allowed to contact the streptavidin membrane of the Promega plate for 1-2 minutes. […] Filter plates were air-dried and 20 μl of scintillant was added. The plates were sealed and counted.
A second assay format was also employed that is based on p38 kinase alpha induced phosphorylation of EGFRP (epidermal growth factor receptor peptide, a 21 mer) in the presence ^33P-ATP. Compounds were tested in 10 fold serial dilutions over the range of 100 μM to 0.001 μM in 1% DMSO. Each concentration of inhibitor was tested in triplicate. Compounds were evaluated in 50 μl reaction volumes in the presence of 25 mM Hepes pH 7.5, 10 mM magnesium acetate, 4% glycerol, 0.4% bovine serum albumin, 0.4 mM DTT, 50 μM unlabeled ATP, 25 μg EGFRP (200 μM), and 0.05 μCi ^33p-ATP. Reactions were initiated by addition of 0.09 μg of activated, purified human GST-p38 kinase alpha. Activation was carried out using GST-MKK6 (5:1,p38:MKK6) for one hour at 30° C. in the presence of 50 μM ATP. Following incubation for 60 minutes at room temperature, the reaction was stopped by addition of 150 μl of AG 1×8 resin in 900 mM sodium formate buffer, pH 3.0 (1 volume resin to 2 volumes buffer). The mixture was mixed three times with pipetting and the resin was allowed to settle. A total of 50 μl of clarified solution head volume was transferred from the reaction wells to Microlite-2 plates. 150 μl of Microscint 40 was then added to each well of the Microlite plate, and the plate was sealed, mixed, and counted.
With `Cc1cc(OCc2ccccc2)c(Br)c(=O)n1-c1c(Cl)cccc1Cl` [DD], the IC50 came to 554 nM. For the molecule `O=c1c(Br)c(OCc2ccccc2)ccn1Cc1cccc(F)c1` [J], the IC50 was 700 nM.

In the case of `O=c1c(Br)c(OCc2ccc(F)cc2F)ccn1Cc1cccc(F)c1` [E], the IC50 stood at 129 nM. For the molecule `O=c1c(Br)c(OCc2ccc(F)cc2F)ccn1Cc1ccc(F)cc1F` [JJ], the IC50 came out at 850 nM.

Regarding `Cc1cccc(COc2ccn(Cc3cccc(F)c3)c(=O)c2Br)c1` [H], the IC50 worked out at 260 nM. Still for that read-out and setting: the value for `COc1cccc(C)c1-n1c(C)cc(OCc2ccc(F)cc2F)c(Br)c1=O` [L] was 294 nM.

As to `N/C(=N/O)c1ccc(Cn2ccc(OCc3ccccc3)c(Br)c2=O)cc1` [Y], the IC50 came out at 489 nM. Same read-out and setting: the same measure for `Cc1cccc(C)c1-n1c(C)cc(OCc2ccc(F)cc2F)c(Br)c1=O` [C]: 64.6 nM; for `O=c1c(Br)c(OCc2cccc(Cl)c2)ccn1Cc1cccc(F)c1` [AA]: 691 nM; for `O=c1c(Br)c(OCc2ccc(F)cc2)ccn1Cc1ccncc1` [EE]: 572 nM.

On to `Cc1ccc(Cn2ccc(OCc3ccccc3)c(Br)c2=O)cc1` [Q], for which the IC50 turned out to be 365 nM.

As to `O=c1c(Br)c(OCc2ccccc2)ccn1Cc1ccc(F)cc1` [D], the IC50 stood at 170 nM. In the case of `N#Cc1ccc(Cn2ccc(OCc3ccc(F)cc3)c(Br)c2=O)cc1` [GG], the IC50 was found to be 785 nM. Take `O=c1c(Br)c(OCc2ccccc2)ccn1Cc1ccccc1F` [U]: the IC50 came to 427 nM. Still for that read-out and setting: the same measure for `O=c1c(I)c(OCc2ccc(F)cc2)ccn1Cc1cccc(F)c1` [HH]: 746 nM. The same measure, in the same setting: the same measure for `COC(=O)c1ccc(Cn2ccc(OCc3ccccc3)c(Br)c2=O)cc1` [Z]: 507 nM; for `O=c1c(Cl)c(OCc2ccccc2)ccn1Cc1ccccc1` [X]: 450 nM; for `O=c1c(Br)c(OCc2ccc(F)cc2)ccn1Cc1ccc(F)cc1` [B]: 403 nM. The same measure, in the same setting: the value for `Cc1cc(OCc2ccc(F)cc2F)c(Br)c(=O)n1Cc1ccncc1` [I] was 210 nM; that for `CSc1ccc(Cn2ccc(OCc3ccccc3)c(Br)c2=O)cc1` [W] was 450 nM; that for `Cc1cc(OCc2ccc(F)cc2F)c(Br)c(=O)n1Cc1cccnc1` [F] was 132 nM. Take `O=c1c(Br)c(OCc2ccccc2)ccn1Cc1ccc(Cl)cc1` [R]: the IC50 turned out to be 398 nM. Take `O=c1c(Br)c(OCc2ccc(F)cc2F)ccn1Cc1ccccc1F` [M]: the IC50 was determined as 360 nM. For the molecule `O=c1c(Br)c(OCc2ccc(F)cc2)ccn1Cc1cccnc1` [II], the IC50 is 873 nM.

Still in this test, the particulars now being: Table II; several values in a cell = repeat determinations; read-out: p38A.
Consider `O=c1c(Br)c(OCc2ccc(Cl)cc2)ccn1CCc1ccccc1` [DDD], for which the IC50 turned out to be 6630 nM. The same measure, in the same setting: the value for `O=c1c(Br)c(OCc2ccc(Cl)cc2)ccn1CCSc1ccccc1` [RRR] was 56500 nM; that for `COc1ccc(Cn2ccc(OCc3ccc(Cl)cc3)c(Br)c2=O)cc1` [QQ] was 2410 nM; that for `O=c1cc(OCc2ccccc2Cl)ccn1Cc1ccccc1` [WWW] was 81800 nM. Still for that read-out and setting: the value for `Cn1ccc(OCc2ccccc2)c(Br)c1=O` [EEE] was 11500 nM. The same measure, in the same setting: the value for `Cc1cc(OCc2ccccc2)cc(=O)n1Cc1ccccc1` [OOOO] was 38700 nM; that for `O=c1cc(OCc2ccccc2)ccn1Cc1ccc(Cl)cc1` [GGGG] was 31900 nM.

Consider `O=c1c(Br)c(OCc2ccccc2)ccn1Cc1cccc(C(F)(F)F)c1` [SSS], for which the IC50 turned out to be 9860 nM.

On to `CCn1ccc(OCc2ccccc2)c(Br)c1=O` [AAA], for which the IC50 was 1990 nM. On the same count and under the same terms, the same measure for `Cc1c(OCc2ccccc2)ccn(Cc2ccccc2)c1=O` [JJJ]: 7990 nM and 3460 nM; for `O=c1c(Br)c(OCc2ccc(F)cc2)ccn1Cc1ccc(F)cc1` [SS]: 1250 nM and 921 nM; for `Cc1cc(OCc2ccccc2)c(Br)c(=O)n1Cc1ccccc1` [XX]: 219 nM. With `O=c1c(Br)c(OCc2ccccc2)ccn1Cc1ccc(C(F)(F)F)cc1` [MMM], the IC50 came out at 1530 nM. Same read-out and setting: the same measure for `O=c1c(CO)c(OCc2ccccc2)ccn1Cc1ccccc1` [NNN]: 24900 nM; for `CC(C)(C)c1ccc(Cn2ccc(OCc3ccccc3)c(Br)c2=O)cc1` [ZZ]: 3670 nM; for `O=c1c(Br)c(OCc2ccc(F)cc2)ccn1CCCc1ccccc1` [HHH]: 18000 nM. The same measure, in the same setting: the value for `Cc1c(Br)c(OCc2ccccc2)c(Br)c(=O)n1Cc1ccccc1` [FFF] was 41600 nM.

With `O=c1c(Br)c(OCc2ccccc2)ccn1CCc1ccsc1` [QQQ], the IC50 amounted to 3310 nM. The same measure, in the same setting: the same measure for `O=c1cc(OCc2cccc(Cl)c2)ccn1Cc1ccccc1` [XXX]: 51500 nM. Same read-out and setting: the value for `O=c1cc(OCc2ccccc2)ccn1Cc1ccccc1` [EEEE] was 26400 nM and 59200 nM and 49000 nM. For the molecule `O=c1cc(OCc2ccccc2)ccn1Cc1cccc(F)c1` [PPP], the IC50 came to 35800 nM. Still for that read-out and setting: the value for `Cc1cc(OCc2cccc(Cl)c2)c(Br)c(=O)n1Cc1ccccc1` [CCC] was 1600 nM; that for `O=c1c(Br)c(OCc2ccc(Cl)cc2)ccn1Cc1ccc(Cl)cc1` [OO] was 2460 nM; that for `O=c1c(Br)c(OCc2ccc(Cl)cc2)ccn1Cc1ccc(F)cc1` [PP] was 1900 nM. Same read-out and setting: the same measure for `O=c1c(Br)c(OCc2ccccc2)ccn1Cc1ccc(OCc2ccccc2)cc1` [TT]: 1450 nM; for `O=c1c(Br)c(OCc2ccc(Cl)cc2)ccn1Cc1cccc(Cl)c1` [RR]: 6800 nM.

With `O=c1cc(OCc2ccccc2)ccn1Cc1ccc(F)cc1` [NNNN], the IC50 came to 64800 nM. On to `O=c1c(Br)c(OCc2ccccc2)ccn1Cc1ccc(OC(F)(F)F)cc1` [DDDD], for which the IC50 stood at 2510 nM. Turning to `O=c1cc(OCc2ccccc2)ccn1Cc1ccccc1F` [FFFF], the IC50 worked out at 33800 nM.

The test is the same for the next values; noted with them: Table III; n = number of times assayed, n=1 if not reported; read-out: p38 Alpha IC50.
With `Cc1cccc(C)c1-n1c(C)cc(OCc2c(F)cc(F)cc2F)c(Br)c1=O` [PPPP], the IC50 came out at 97 nM. Same read-out and setting: the same measure for `O=c1c(Br)c(OCc2ccccc2)ccn1Cc1ccc(C(F)(F)F)cc1` [MMMMM]: 1530 nM; for `O=c1c(Br)c(OCc2ccc(F)cc2)ccn1Cc1cccc(Cl)c1` [IIIII]: 1140 nM; for `O=c1c(Br)c(OCc2ccc(F)cc2F)ccn1Cc1ccncc1` [SSSS]: 141 nM. Still for that read-out and setting: the value for `Cc1ccc(COc2ccn(Cc3ccccc3)c(=O)c2Br)cc1` [QQQQQ] was 1730 nM; that for `Cc1cccc(C)c1-n1c(C)cc(OCc2c(F)cccc2F)c(Br)c1=O` [QQQQ] was 199 nM; that for `NCc1cccc(Cn2ccc(OCc3ccc(F)cc3)c(Br)c2=O)c1` [TTTT] was 175 nM.

For `O=c1c(Br)c(OCc2ccc(F)cc2)ccn1CC1CC1` [JJJJJ], the IC50 came out at 1550 nM. On the same count and under the same terms, the value for `O=c1c(Br)c(OCc2cccc(Cl)c2)ccn1Cc1cccc(F)c1` [DDDDD] was 691 nM. On to `O=c1c(Cl)c(OCc2ccc(F)cc2)ccn1Cc1ccc(F)cc1` [FFFFF], for which the IC50 was determined as 1080 nM. Same read-out and setting: the value for `Cc1cc(OCc2ccc(F)cc2F)c(Br)c(=O)n1Cc1cccnc1` [RRRR] was 132 nM. The same measure, in the same setting: the value for `O=c1c(Br)c(OCc2ccccc2)ccn1Cc1ccc(F)nc1` [RRRRR] was 1850 nM; that for `CCn1ccc(OCc2ccccc2)c(Br)c1=O` [SSSSS] was 1990 nM. Regarding `Cc1cc(OCc2c(F)cccc2F)c(Br)c(=O)n1-c1c(Cl)cccc1Cl` [YYYY], the IC50 was determined as 339 nM. The same measure, in the same setting: the value for `Cc1cc(OCc2ccc(F)cc2F)c(Br)c(=O)n1Cc1ccncc1` [VVVV] was 183 nM; that for `Cc1ccccc1COc1ccn(Cc2cccc(F)c2)c(=O)c1Br` [NNNNN] was 1690 nM; that for `O=c1c(Br)c(OCc2ccc(F)cc2F)ccn1Cc1cccnc1` [XXXX] was 282 nM. The same measure, in the same setting: the value for `O=c1c(Br)c(OCc2ccccc2)ccn1Cc1ccc(OCc2ccccc2)cc1` [KKKKK] was 1450 nM; that for `COc1ccc(Cn2ccc(OCc3ccc(F)cc3)c(Br)c2=O)cc1` [GGGGG] was 1040 nM. Still for that read-out and setting: the value for `Cc1cc(OCc2c(F)cc(F)cc2F)c(Br)c(=O)n1Cc1ccncc1` [UUUU] was 192 nM.

Consider `Cc1cccc(COc2ccn(Cc3cccc(F)c3)c(=O)c2Br)c1` [WWWW], for which the IC50 stood at 260 nM. Turning to `O=c1c(Br)c(OCc2ccccc2CO)ccn1Cc1cccc(F)c1` [CCCCC], the IC50 is 663 nM.
